Assay results published in patent US20100298141A1, “SUBSTITUTED PYRIDINE N-OXIDE HERBICIDES” (E. I. DU PONT DE NEMOURS AND COMPANY, priority 2007, published 2010).

Key:
morningglory = assay: Test A pre-/postemergence greenhouse test; type: in vivo, Ipomoea spp.; conditions: for Morningglory plant response rating: 0 to 100 scale; for Plant response rating, Morningglory: 0 to 100 scale where 0 is no effect and 100 is complete control
Outline: (§1)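 Untreated controls served as the reference for visual injury ratings taken about ten days after spraying. The non-phytotoxic solvent/surfactant formulation was applied preemergence to seeded loam and sand and postemergence to plants two to ten cm high.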

redroot pigweed = assay: Test A pre-/postemergence greenhouse test; type: in vivo, Amaranthus retroflexus; conditions: for Pigweed plant response rating: 0 to 100 scale; for Plant response rating, Pigweed: 0 to 100 scale where 0 is no effect and 100 is complete control
Outline: as §1

blackgrass = assay: Test C pre-/postemergence test; type: in vivo, Alopecurus myosuroides; conditions: for Plant response rating, Blackgrass: 31 g ai/ha, scale 0 to 100 (0 no effect, 100 complete control)
Outline: (§2)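 Seeds were planted and treated preemergence with test chemical in a non-phytotoxic solvent mixture containing surfactant. Postemergence applications of the same formulation went onto plants 2 to 18 cm tall (1- to 4-leaf stage). A dash marks no test result.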

downy brome = assay: Test C pre-/postemergence test; type: in vivo, Bromus tectorum; conditions: for Plant response rating, Bromegrass, Downy: 31 g ai/ha, scale 0 to 100 (0 no effect, 100 complete control)
Outline: as §2

green foxtail = assay: Test C pre-/postemergence test; type: in vivo, Setaria viridis; conditions: for Plant response rating, Foxtail, Green: 31 g ai/ha, scale 0 to 100 (0 no effect, 100 complete control)
Outline: as §2

wild oat = assay: Test C pre-/postemergence test; type: in vivo, Avena fatua; conditions: for Plant response rating, Oat, Wild: 31 g ai/ha, scale 0 to 100 (0 no effect, 100 complete control)
Outline: as §2

catchweed bedstraw = assay: Test C pre-/postemergence test; type: in vivo, Galium aparine; conditions: for Plant response rating, Galium: 31 g ai/ha, scale 0 to 100 (0 no effect, 100 complete control)
Outline: as §2

bermudagrass = assay: Test C pre-/postemergence test; type: in vivo, Cynodon dactylon; conditions: for Plant response rating, Bermudagrass: 31 g ai/ha
Outline: as §2

cocklebur = assay: Test C pre-/postemergence test; type: in vivo, Xanthium strumarium; conditions: for Plant response rating, Cocklebur: 31 g ai/ha, scale 0 to 100 (0 no effect, 100 complete control)
Outline: as §2

woolly cupgrass = assay: Test C pre-/postemergence test; type: in vivo, Eriochloa villosa; conditions: for Plant response rating, Cupgrass, Woolly: 31 g ai/ha, scale 0 to 100 (0 no effect, 100 complete control)
Outline: as §2

kochia = assay: Test C pre-/postemergence test; type: in vivo, Kochia scoparia; conditions: for Plant response rating, Kochia: 31 g ai/ha, scale 0 to 100 (0 no effect, 100 complete control)
Outline: as §2

lambsquarters = assay: Test C pre-/postemergence test; type: in vivo, Chenopodium album
Outline: as §2

yellow nutsedge = assay: Test C pre-/postemergence test; type: in vivo, Cyperus esculentus; conditions: for Plant response rating, Nutsedge, Yellow: 31 g ai/ha, scale 0 to 100 (0 no effect, 100 complete control)
Outline: as §2

soybean = assay: Test C pre-/postemergence test; type: in vivo, Glycine max
Outline: as §2

rice = assay: Test C flooded paddy test; type: in vivo, Oryza sativa; conditions: Flood
Outline: (§3)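 Under a constant 3 cm flood, test compounds went directly into the paddy water. Following 13 to 15 days of greenhouse growth, treated species and controls were compared by eye.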

duck salad = assay: Test C flooded paddy test; type: in vivo, Heteranthera limosa; conditions: Flood
Outline: as §3

[1] = Postemergence, 125 g ai/ha, 0 is no effect, 100 is complete control
[2] = Postemergence, 500 g ai/ha, 0 is no effect, 100 is complete control
[3] = Preemergence, 125 g ai/ha, 0 no effect, 100 complete control
[4] = 62 g ai/ha, Preemergence, scale 0 to 100
[5] = preemergence, 125 g ai/ha, scale 0 (no effect) to 100 (complete control)
[6] = 62 g ai/ha, Preemergence, scale 0 to 100 (0 no effect, 100 complete control)
[7] = Preemergence, scale 0 to 100 (0 no effect, 100 complete control)
[8] = 31 g ai/ha, scale 0 to 100 (0 no effect, 100 complete control)
[9] = 62 g ai/ha, scale 0 to 100, 0 no effect, 100 complete control, 13 to 15 days
[10] = 250 g ai/ha, scale 0 to 100 (0 no effect, 100 complete control)
[11] = 125 g ai/ha, preemergence, scale 0 (no effect) to 100 (complete control)
[12] = preemergence, 250 g ai/ha, scale 0 (no effect) to 100 (complete control)
[13] = Preemergence, 31 g ai/ha, scale 0 to 100 (0 no effect, 100 complete control)
[14] = 62 g ai/ha, scale 0 to 100 (0 no effect, 100 complete control)
[15] = 250 g ai/ha, scale 0 to 100, 0 no effect, 100 complete control, 13 to 15 days

With `Cn1nc(C(F)(F)F)c(CS(=O)(=O)c2cccc[n+]2[O-])c1OCC(F)(F)F` [Compound 29] the “Morningglory plant response rating” value (morningglory; [1]) was 30, the “Morningglory plant response rating” value (morningglory; [2]) was 80 and the “Morningglory plant response rating” value (morningglory; [3]) was 70. The “Plant response rating, Morningglory” value (morningglory; Preemergence, 500 g ai/ha) was 80, the “Pigweed plant response rating” value (redroot pigweed; [1]) was 70 and the “Pigweed plant response rating” value (redroot pigweed; [2]) was 80. For the same molecule, the “Pigweed plant response rating” value (redroot pigweed; [3]) was 100, the “Plant response rating, Pigweed” value (redroot pigweed; Preemergence, 500 g ai/ha) was 100 and the “Blackgrass plant response rating” value (blackgrass; [4]) was 100. For the same molecule, the “Plant response rating, Blackgrass” value (blackgrass; Preemergence) was 98, the “Plant response rating (0 to 100), Blackgrass” value (blackgrass; Preemergence, 250 g ai/ha) was 100 and the “Blackgrass plant response rating” value (blackgrass; [5]) was 100. For the same molecule, the “Bromegrass, Downy plant response rating” value (downy brome; [4]) was 20, the “Plant response rating, Bromegrass, Downy” value (downy brome; Preemergence) was 0 and the “Plant response rating (0 to 100), Bromegrass, Downy” value (downy brome; Preemergence, 250 g ai/ha) was 60. The “Bromegrass, Downy plant response rating” value (downy brome; [5]) was 60, the “Foxtail, Green plant response rating” value (green foxtail; [4]) was 100 and the “Plant response rating, Foxtail, Green” value (green foxtail; Preemergence) was 85. For the same molecule, the “Plant response rating (0 to 100), Foxtail, Green” value (green foxtail; Preemergence, 250 g ai/ha) was 100, the “Oat, Wild plant response rating” value (wild oat; [4]) was 50 and the “Plant response rating, Oat, Wild” value (wild oat; Preemergence) was 20. The “Galium plant response rating” value (catchweed bedstraw; [4]) was 100, the “Plant response rating, Galium” value (catchweed bedstraw; Preemergence) was 100 and the “Plant response rating (0 to 100), Galium” value (catchweed bedstraw; Preemergence, 250 g ai/ha) was 100. The “Bermudagrass plant response rating” value (bermudagrass; [6]) was 100, the “Plant response rating, Bermudagrass” value (bermudagrass; [7]) was 100 and the “Plant response rating (0 to 100), Bermudagrass” value (bermudagrass; Preemergence, 250 g ai/ha) was 100. For the same molecule, the “Bermudagrass plant response rating” value (bermudagrass; [5]) was 100, the “Cocklebur plant response rating” value (cocklebur; [4]) was 0 and the “Plant response rating, Cocklebur” value (cocklebur; Preemergence) was 0. For the same molecule, the “Plant response rating (0 to 100), Cocklebur” value (cocklebur; Preemergence, 250 g ai/ha) was 10, the “Cocklebur plant response rating” value (cocklebur; [5]) was 0 and the “Cupgrass, Woolly plant response rating” value (woolly cupgrass; [4]) was 100. For the same molecule, the “Plant response rating, Cupgrass, Woolly” value (woolly cupgrass; Preemergence) was 80, the “Plant response rating (0 to 100), Cupgrass, Woolly” value (woolly cupgrass; Preemergence, 250 g ai/ha) was 100 and the “Kochia plant response rating” value (kochia; [4]) was 100. For the same molecule, the “Plant response rating, Kochia” value (kochia; Preemergence) was 100, the “Lambsquarters plant response rating” value (lambsquarters; [4]) was 0 and the “Nutsedge, Yellow plant response rating” value (yellow nutsedge; [4]) was 100. The “Plant response rating, Nutsedge, Yellow” value (yellow nutsedge; Preemergence) was 80, the “Soybean plant response rating” value (soybean; [4]) was 70 and the “Plant response rating, Rice” value (rice; [8]) was 0. For the same molecule, the “Plant response rating, Rice” value (rice; [9]) was 0, the “Plant response rating, Rice” value (rice; 125 g ai/ha, scale 0 to 100, 0 no effect, 100 complete control, 13 to 15 days) was 40 and the “Plant response rating, Rice” value (rice; [10]) was 80. For the same molecule, the “Plant response rating, Ducksalad” value (duck salad; [8]) was 70, the “Plant response rating, Ducksalad” value (duck salad; [9]) was 80 and the “Plant response rating, Ducksalad” value (duck salad; [10]) was 90.
For `CC(Oc1c(C[S+]([O-])c2cccc[n+]2[O-])c(C(F)(F)F)nn1C)C(F)(F)F` (centres unmarked) [Compound 77], the “Plant response rating, Morningglory” value (morningglory; Postemergence, 125 g ai/ha) was 70, the “Morningglory plant response rating” value (morningglory; [2]) was 90 and the “Morningglory plant response rating” value (morningglory; [3]) was 70. For the same molecule, the “Plant response rating, Morningglory” value (morningglory; Preemergence, 500 g ai/ha) was 100, the “Plant response rating, Pigweed” value (redroot pigweed; Postemergence, 125 g ai/ha) was 70 and the “Pigweed plant response rating” value (redroot pigweed; [2]) was 80. For the same molecule, the “Pigweed plant response rating” value (redroot pigweed; [3]) was 70, the “Plant response rating, Pigweed” value (redroot pigweed; Preemergence, 500 g ai/ha) was 100 and the “Blackgrass plant response rating” value (blackgrass; [4]) was 100. For the same molecule, the “Blackgrass plant response rating” value (blackgrass; [11]) was 100, the “Plant response rating, Blackgrass” value (blackgrass; Preemergence) was 100 and the “Blackgrass plant response rating” value (blackgrass; [12]) was 100. The “Bromegrass, Downy plant response rating” value (downy brome; [4]) was 45, the “Bromegrass, Downy plant response rating” value (downy brome; [11]) was 70 and the “Plant response rating, Bromegrass, Downy” value (downy brome; Preemergence) was 0. The “Bromegrass, Downy plant response rating” value (downy brome; [12]) was 100, the “Foxtail, Green plant response rating” value (green foxtail; [4]) was 85 and the “Foxtail, Green plant response rating” value (green foxtail; [11]) was 100. For the same molecule, the “Plant response rating, Foxtail, Green” value (green foxtail; Preemergence) was 85, the “Foxtail, Green plant response rating” value (green foxtail; [12]) was 100 and the “Oat, Wild plant response rating” value (wild oat; [4]) was 70. For the same molecule, the “Oat, Wild plant response rating” value (wild oat; [11]) was 90, the “Plant response rating, Oat, Wild” value (wild oat; Preemergence) was 35 and the “Oat, Wild plant response rating” value (wild oat; [12]) was 95. For the same molecule, the “Galium plant response rating” value (catchweed bedstraw; [4]) was 100, the “Galium plant response rating” value (catchweed bedstraw; [11]) was 100 and the “Plant response rating, Galium” value (catchweed bedstraw; Preemergence) was 100. For the same molecule, the “Galium plant response rating” value (catchweed bedstraw; [12]) was 100, the “Bermudagrass plant response rating” value (bermudagrass; [6]) was 100 and the “Bermudagrass plant response rating” value (bermudagrass; [11]) was 100. The “Plant response rating, Bermudagrass” value (bermudagrass; [7]) was 100, the “Bermudagrass plant response rating” value (bermudagrass; [12]) was 100 and the “Cocklebur plant response rating” value (cocklebur; [11]) was 0. The “Plant response rating, Cocklebur” value (cocklebur; Preemergence) was 0, the “Cocklebur plant response rating” value (cocklebur; [12]) was 0 and the “Cupgrass, Woolly plant response rating” value (woolly cupgrass; [4]) was 98. For the same molecule, the “Cupgrass, Woolly plant response rating” value (woolly cupgrass; [11]) was 100, the “Plant response rating, Cupgrass, Woolly” value (woolly cupgrass; Preemergence) was 80 and the “Cupgrass, Woolly plant response rating” value (woolly cupgrass; [12]) was 100. The “Kochia plant response rating” value (kochia; [4]) was 100, the “Kochia plant response rating” value (kochia; [11]) was 100 and the “Plant response rating, Kochia” value (kochia; Preemergence) was 100. The “Kochia plant response rating” value (kochia; [12]) was 100, the “Lambsquarters plant response rating” value (lambsquarters; [4]) was 100 and the “Lambsquarters plant response rating” value (lambsquarters; [11]) was 100. The “Plant response rating, Lambsquarters” value (lambsquarters; [13]) was 100, the “Lambsquarters plant response rating” value (lambsquarters; [12]) was 100 and the “Nutsedge, Yellow plant response rating” value (yellow nutsedge; [4]) was 100. The “Nutsedge, Yellow plant response rating” value (yellow nutsedge; [11]) was 100, the “Plant response rating, Nutsedge, Yellow” value (yellow nutsedge; Preemergence) was 50 and the “Nutsedge, Yellow plant response rating” value (yellow nutsedge; [12]) was 100. For the same molecule, the “Soybean plant response rating” value (soybean; [4]) was 45, the “Soybean plant response rating” value (soybean; [11]) was 70 and the “Plant response rating, Soybean” value (soybean; [13]) was 40. For the same molecule, the “Soybean plant response rating” value (soybean; [12]) was 100, the “Plant response rating, Rice” value (rice; [14]) was 30 and the “Plant response rating, Rice” value (rice; [15]) was 70. The “Plant response rating, Ducksalad” value (duck salad; [14]) was 75 and the “Plant response rating, Ducksalad” value (duck salad; [15]) was 100.
